PubChem BioAssay (NCI)
Where “and” joins values, the source holds several entries; their conditions need not be identical. Equal values may be shown once.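 How tested: cells in 96-well plates exposed to compound for 48 hours at five concentrations. GI50 marks 50% less growth. TGI is the concentration that stops growth completely.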

Assays:
Experiment in all cases: NCI anticancer screen, dose series, 48 h
A498 renal = test system: A498 renal
KM12 colon = test system: KM12 colon
LOX IMVI melanoma = test system: LOX IMVI melanoma
MALME-3M melanoma = test system: MALME-3M melanoma
MOLT-4 leukemia = test system: MOLT-4 leukemia
NCI-H23 lung = test system: NCI-H23 lung
PC-3 prostate = test system: PC-3 prostate
RPMI-8226 leukemia = test system: RPMI-8226 leukemia
SN12C renal = test system: SN12C renal
SNB-19 CNS = test system: SNB-19 CNS

Row | Compound | GI50 (A498 renal) [µM] | TGI (A498 renal) [µM] | GI50 (KM12 colon) [µM] | TGI (KM12 colon) [µM] | GI50 (LOX IMVI melanoma) [µM] | TGI (LOX IMVI melanoma) | GI50 (MALME-3M melanoma) [µM] | TGI (MALME-3M melanoma) [µM] | GI50 (MOLT-4 leukemia) [µM] | TGI (MOLT-4 leukemia) [µM] | GI50 (NCI-H23 lung) [µM] | TGI (NCI-H23 lung) [µM] | GI50 (PC-3 prostate) [µM] | TGI (PC-3 prostate) [µM] | GI50 (RPMI-8226 leukemia) [µM] | TGI (RPMI-8226 leukemia) [µM] | GI50 (SN12C renal) [µM] | TGI (SN12C renal) [µM] | GI50 (SNB-19 CNS) [µM] | TGI (SNB-19 CNS) [µM]
1 | Oc1ccc(N=Nc2ccccn2)c(O)c1 | 16.7 | > 100 | 0.699 | > 100 | 0.365 | > 100 µM | 4.86 | > 100 | 0.42 | > 100 | 2.66 | > 100 | 0.775 | > 100 | 0.863 | > 100 | 1.91 | > 100 | 2.07 | > 100
2 | CC(C)=CCCC(C)C1=C(O)C(=O)C(C)=CC1=O (stereo not drawn) |  | 35.1 |  | 34.6 |  | 15.1 µM |  | 23 |  | 5.12 |  | 34 |  | 33 |  | > 100 |  | 34.6 |  | > 62.4
3 | Cc1c(Cl)cccc1NC(=O)c1sc2nc3c(cc2c1N)CCCCC3 | 0.331 | 19.3 | 0.236 | > 50 | 0.262 | 23.7 µM | 0.357 | 37.7 | 0.275 | > 50 | 0.391 | > 50 | 0.307 | 17.9 | 0.434 | > 50 | 1.44 | > 50 | 0.298 | > 50
4 | C=C1C(=O)O[C@H]2[C@H]1CC/C(COC(=O)NCc1ccc(Cn3c(=O)sn(-c4ccccc4)c3=O)cc1)=C\CC[C@@]1(C)O[C@@H]21 | 3.91 | 14.5 | 3.46 | 12.7 | 1.62 | 3.07 µM | 2.09 | 4.06 | 2.2 | 7.09 | 3.55 | 12.6 | 2.36 | 5.63 | 2.03 | 6.26 | 2.14 | 5.1 | 4.26 | 16.1
5 | O=C(NC(=O)c1ccccc1[N+](=O)[O-])Nc1ccc(Oc2ncc(Cl)cn2)c(C(F)(F)F)c1 |  | 1.29 |  | 3.63 |  | 13.8 µM |  | > 100 |  | > 69.1 |  | > 100 |  | 0.0658 |  | > 67.9 |  | 62.9 |  | 85.7
6 | Oc1c(CN2CCN(c3ccccc3)CC2)cc(Br)c2cccnc12 |  | > 100 |  | > 100 |  | 17 µM |  | 42.2 |  | 6.15 |  | > 100 |  | 32.5 |  | > 40.4 |  | > 37.6 |  | > 100
7 | C[C@@H]1COCCN1c1cc(C2(O)C[C@H]3CC[C@@H](C2)O3)c2cnn(-c3ccn[nH]3)c2n1 (stereo partly drawn) | 0.0221 | 0.13 | 0.167 | 9.73 | 0.0246 | 0.145 µM | 0.0656 | 0.462 | 0.0437 | > 67.3 | 0.0286 | 0.188 | 0.277 | 24.4 | 0.162 | 3.72 | 0.143 | 4.09 | 0.166 | 1.74
8 | C/C(=N\NC(=S)N(C)C)c1ccccn1 |  | 8.11 | 0.22 | 20 | 0.00215 | 0.141 µM and 0.0176 µM | 0.00639 |  | 0.000297 | 2.12 |  | 18.7 | 0.132 | 15.9 | 0.000878 | 31.9 | 0.0436 | 11.2 | 0.011 | 16.3
9 | CN(C)CCCn1c(-c2nonc2N)nc2cnccc21 | 12 | > 25 | > 25 | > 25 | > 25 | > 25 µM | > 25 | > 25 | > 25 | > 25 | > 25 | > 25 | > 25 | > 25 | > 25 | > 25 | > 25 | > 25 | > 25 | > 25
10 | CC(=C/c1ccccc1)/C=C1/NC(=S)N(/C=C2\C(=O)Oc3ccccc3C2=O)C1=O |  | > 100 |  | > 100 |  | > 100 µM | > 100 | > 100 |  | > 100 |  | > 100 |  | > 100 |  | > 100 |  | > 100 |  | > 100
11 | O=Nc1c(-c2c(O)[nH]c3ccc(Br)cc23)[nH]c2ccccc12 | 3.7 | 8.07 | 1.14 | 5.2 | 2.18 | 11 µM | 21.8 | > 100 | 2.93 | 7.21 | 3.13 | 12.8 | 3.38 | 78.9 | 3.56 | 25.5 | 4.09 | > 100 | 7.99 | > 100
12 | O=C1OCC2=C1C(c1ccccc1)c1cc3c(cc1N2CCO)OCCO3 (stereo not drawn) | 0.188 | 4.05 | 0.207 | 6.19 | 0.36 | > 50 µM | > 50 | > 50 | 0.236 | > 10.4 | 0.448 | > 50 | 0.182 | > 50 | 0.392 | > 50 | 4.46 | > 50 | 0.921 | > 16.8
13 | Cc1cc(C(=O)c2ccccc2)c(C)c2c1[nH]c1ccc(Cl)cc12 | 0.0305 | 0.282 | 0.045 | 7.23 | 0.0642 | 10.3 µM | 0.0558 | 15.9 | 0.103 | > 54.2 | 0.101 | > 47 | 0.0526 | > 43.9 | 0.0581 | 22 | 0.117 | 14.3 | 0.0541 | 35.1
14 | CCN(CC)c1ccc(/C=C/C=C2\NC(=O)NC2=O)cc1 | 1.26 | 6.55 | 1.85 | 21.3 | 7.15 | > 100 µM | 28.7 | > 100 | 6.49 | > 100 | 11.2 | > 100 | 3.75 | > 100 | 2.68 | 32.4 | 9.41 | > 100 | 16.1 | > 100
15 | CC[C@H](C)C(=O)O[C@H]1C[C@H](O)C=C2C=C[C@H](C)[C@H](CC[C@@H](O)C[C@@H](O)CC(=O)O)[C@H]21 | 11.6 | > 100 | > 100 | > 100 | > 100 | > 100 µM | > 100 | > 100 | > 100 | > 100 | > 100 | > 100 | > 100 | > 100 | > 100 | > 100 | > 100 | > 100 | > 100 | > 100
16 | COc1cc(-c2csc(NC(=O)Nc3cc(Cl)cc(Cl)c3)n2)cc(OC)c1OC | 1.42 | 3.1 | 2.48 | 8.14 | 1.93 | 3.96 µM | 1.75 | 3.25 | 3.9 | > 100 | 1.94 | 4.5 | 1.59 | 3.61 | 2.42 | 9.24 | 1.78 | 3.28 | 1.93 | 4.03
17 | CCCCCCCCCCCCCCCCCC(=O)Nc1ccn(C2OC(CO)C(O)C2O)c(=O)n1 (stereo not drawn) |  | 99 |  | > 100 |  | 39.4 µM |  | > 59.1 |  | 23.1 |  | 98.7 |  | > 100 |  | > 100 |  | > 100 |  | 69.7
18 | COc1ccccc1C(=O)N(C)c1ccc(Cl)c(C(=O)OC(C)C)c1 |  | > 100 |  | 68.7 |  | > 100 µM |  | > 100 |  | > 100 |  | > 100 |  | > 100 |  | > 100 |  | > 100 |  | > 100
19 | CC(=O)c1nc2ccccc2n1CC(=O)c1cccc(Cl)c1 | 6.52 | 88.6 | 0.779 | > 43.4 | 0.59 | > 100 µM | 0.517 | > 100 | 0.897 | 26.7 | 0.522 | > 47.5 | 1.12 | > 100 | 0.255 | 14.3 | 0.838 | > 100 | 0.808 | > 100
20 | CC(C)(C)c1ccc(NS(=O)(=O)c2ccc3nc(NC(=O)c4cnccn4)[nH]c3c2)cc1 | 1.75 | 5.98 | 2.16 | 13.9 | 2.61 | 15.4 µM | 1.06 | 13.1 | 5 | 57.4 | 3.19 | 15.4 | 1.65 | 10.6 | 4.51 | > 100 | 3.85 | 15.9 | 3.31 | 18.3
21 | COc1c(B(O)O)cc(F)cc1-c1nc2ccc3[nH]ncc3c2c2c1CCCC2 | 0.0664 | 2.52 | 1.26 | 7.62 | 0.727 | 3.43 µM | 3.54 | 6.82 | 1.18 | > 100 | 2.02 | 7.61 | 1.9 | 11.3 | 1.12 | 5.58 | 1.15 | 15.3 | 1.73 | 13
22 | C=CC(COC(c1ccccc1)(c1ccccc1)c1ccccc1)N(CC)CC (stereo not drawn) | 8.25 | 23.5 | 4.33 | 14.8 | 4.73 | 18.8 µM | 1.89 | 4.3 | 3.02 | 11.6 | 6.07 | 19.9 | 4.02 | 15.6 | 2.99 | 7.8 | 7.97 | 24.5 | 10.1 | 25.3
23 | O=C(NC(=S)Nc1cc(Cl)ccc1O)c1cccc(Br)c1 | 4.8 | 51.9 | 5.78 | > 100 | 15.8 | > 100 µM | 9.33 | 55.4 | 4.47 | > 100 | 7.93 | > 100 | 6.78 | > 100 | 4.15 | > 100 | 12.5 | > 100 | 8.78 | > 100
24 | CCSc1ccc(C2C(Br)C(=O)N2c2cc(OC)c(OC)c(OC)c2)cc1 (stereo not drawn) | 0.103 | 0.74 | 0.202 | > 100 | 0.834 | 16.6 µM | 11.3 | 32.4 | 0.347 | 88.9 | 0.478 | 73.4 | 0.297 | > 100 | 0.361 | 4.37 | 0.925 | 21 | 0.44 | > 100
25 | CCN(c1cc(C#CCN2CCOCC2)cc(C(=O)NCc2c(C)cc(C)[nH]c2=O)c1C)C1CCC(N(C)CCOC)CC1 (stereo not drawn) | > 100 | > 100 | > 100 | > 100 | > 100 | > 100 µM | > 100 | > 100 | > 100 | > 100 | > 100 | > 100 | > 100 | > 100 | 7.13 | > 100 | > 100 | > 100 | > 100 | > 100
